Source: PMC6273138, “Inhibitory Effects of Aschantin on Cytochrome P450 and Uridine 5′-diphospho-glucuronosyltransferase Enzyme Activities in Human Liver Microsomes” (Molecules, 2016)
Read-outs that look alike come from different tables or passages of the source.

Key:
[1] = molecular target: T1, CYP2B6 (Homo sapiens, UniProt P20813); assay: CYP2B6-catalyzed bupropion hydroxylase inhibition in pooled human liver microsomes; format: in vitro ADME; settings: for IC50: CYP2B6 bupropion hydroxylase, 50 µM bupropion
T1 construct: tissue Corning Life Sciences 452161; host or cells: pooled human liver microsomes
T1 sequence (P20813 1-491): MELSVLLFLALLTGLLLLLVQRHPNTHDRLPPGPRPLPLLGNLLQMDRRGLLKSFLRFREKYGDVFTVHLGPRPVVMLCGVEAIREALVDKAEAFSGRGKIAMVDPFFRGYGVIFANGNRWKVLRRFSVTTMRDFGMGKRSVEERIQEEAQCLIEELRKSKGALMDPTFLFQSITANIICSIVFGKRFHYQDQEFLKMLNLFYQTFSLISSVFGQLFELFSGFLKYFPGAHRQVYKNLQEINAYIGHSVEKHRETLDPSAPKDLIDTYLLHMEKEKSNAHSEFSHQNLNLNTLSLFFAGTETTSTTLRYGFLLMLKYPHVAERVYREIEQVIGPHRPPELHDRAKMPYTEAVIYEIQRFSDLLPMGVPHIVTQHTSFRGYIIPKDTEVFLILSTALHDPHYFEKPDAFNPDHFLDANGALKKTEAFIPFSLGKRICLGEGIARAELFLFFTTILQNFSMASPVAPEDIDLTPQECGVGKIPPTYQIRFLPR
Description: The effects of aschantin on CYP2B6-catalyzed bupropion hydroxylase activity were evaluated using LC-MS/MS with pooled human liver microsomes. […] The reaction was initiated by adding bupropion. Hydroxybupropion levels were determined using the LC-MS/MS method described above; the SRM parameters were 256.1 > 238.0 for hydroxybupropion and 287.2 > 187.0 for d9-1′-hydroxybufuralol.

[2] = molecular target: CYP3A4 (Homo sapiens, UniProt P08684); assay: CYP3A4-catalyzed midazolam 1′-hydroxylase inhibition in pooled human liver microsomes; settings: for IC50: CYP3A4 midazolam 1′-hydroxylase, 2.5 µM midazolam
[3] = molecular target: T2, UGT1A9 (Homo sapiens, UniProt O60656); assay: UGT1A9-catalyzed mycophenolic acid glucuronidation inhibition in pooled human liver microsomes; format: in vitro ADME; settings: 0.2 µM mycophenolic acid
T2 construct: using pooled human liver microsomes incubated with the cocktail of UGT substrates; tissue Corning Life Sciences 452161; host or cells: pooled human liver microsomes
T2 sequence (O60656 26-530): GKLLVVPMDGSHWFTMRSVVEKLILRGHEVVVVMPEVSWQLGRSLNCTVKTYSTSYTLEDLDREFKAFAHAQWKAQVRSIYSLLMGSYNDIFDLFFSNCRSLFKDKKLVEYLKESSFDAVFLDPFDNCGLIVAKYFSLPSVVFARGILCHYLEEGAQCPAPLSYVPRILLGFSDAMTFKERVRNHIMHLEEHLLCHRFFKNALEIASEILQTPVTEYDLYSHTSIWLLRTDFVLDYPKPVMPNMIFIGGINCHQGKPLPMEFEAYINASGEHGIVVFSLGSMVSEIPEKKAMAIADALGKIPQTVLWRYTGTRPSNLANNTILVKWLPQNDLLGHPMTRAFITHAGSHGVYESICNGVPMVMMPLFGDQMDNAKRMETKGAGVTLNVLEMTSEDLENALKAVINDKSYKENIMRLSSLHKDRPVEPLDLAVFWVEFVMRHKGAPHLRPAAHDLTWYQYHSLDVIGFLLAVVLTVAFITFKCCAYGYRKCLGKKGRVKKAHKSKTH
Description: (§1) The extents of aschantin on UGT1A1, UGT1A3, UGT1A4, UGT1A6, UGT1A9, and UGT2B7 were evaluated by LC-MS/MS, using pooled human liver microsomes incubated with the cocktail of UGT substrates. The method was modified from that of Joo et al..
(§2) The metabolites formed from the six UGT cocktail substrates were simultaneously measured using the LC-MS/MS method. […] The mass spectrometer was equipped with an ESI source and was operated in both positive and negative ion modes. […] Each metabolite was quantified via SRM in the negative ion (chenodeoxycholic acid 24-acyl-β-glucuronide, 567.2 > 391.0; mycophenolic acid glucuronide, 495.2 > 318.9; propofol glucuronide, 353.3 > 177.1) and positive ion (SN-38 glucuronide, 569.0 > 393.0; trifluoperazine glucuronide, 584.2 > 408.1; N-acetylserotonin-β-D-glucuronide, 395.2 > 219.0; naloxone 3-β-D-glucuronide, 504.0 > 310.0; meloxicam, 352.0 > 115.1) modes.

[4] = molecular target: T3, UGT1A4 (Homo sapiens, UniProt P22310); assay: UGT1A4-catalyzed trifluoperazine N-glucuronidation inhibition in pooled human liver microsomes; format: in vitro ADME
T3 construct: using pooled human liver microsomes incubated with the cocktail of UGT substrates; tissue Corning Life Sciences 452161; host or cells: pooled human liver microsomes
T3 sequence (P22310 29-534): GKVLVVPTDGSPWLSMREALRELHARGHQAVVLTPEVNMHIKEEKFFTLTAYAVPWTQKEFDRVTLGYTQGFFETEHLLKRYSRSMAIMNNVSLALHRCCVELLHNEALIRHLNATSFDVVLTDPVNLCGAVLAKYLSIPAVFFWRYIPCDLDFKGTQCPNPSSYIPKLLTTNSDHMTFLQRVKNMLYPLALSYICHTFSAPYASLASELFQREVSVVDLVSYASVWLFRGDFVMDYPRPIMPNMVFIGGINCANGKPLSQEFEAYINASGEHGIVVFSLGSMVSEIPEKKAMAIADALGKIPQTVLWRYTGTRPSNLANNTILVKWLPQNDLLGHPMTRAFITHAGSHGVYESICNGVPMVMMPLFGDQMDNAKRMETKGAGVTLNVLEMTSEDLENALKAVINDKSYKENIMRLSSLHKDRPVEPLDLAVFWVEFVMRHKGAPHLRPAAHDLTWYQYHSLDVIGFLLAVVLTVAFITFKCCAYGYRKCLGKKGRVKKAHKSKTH
Description: as §1, §2

Sequence of CYP3A4 (P08684 2-503): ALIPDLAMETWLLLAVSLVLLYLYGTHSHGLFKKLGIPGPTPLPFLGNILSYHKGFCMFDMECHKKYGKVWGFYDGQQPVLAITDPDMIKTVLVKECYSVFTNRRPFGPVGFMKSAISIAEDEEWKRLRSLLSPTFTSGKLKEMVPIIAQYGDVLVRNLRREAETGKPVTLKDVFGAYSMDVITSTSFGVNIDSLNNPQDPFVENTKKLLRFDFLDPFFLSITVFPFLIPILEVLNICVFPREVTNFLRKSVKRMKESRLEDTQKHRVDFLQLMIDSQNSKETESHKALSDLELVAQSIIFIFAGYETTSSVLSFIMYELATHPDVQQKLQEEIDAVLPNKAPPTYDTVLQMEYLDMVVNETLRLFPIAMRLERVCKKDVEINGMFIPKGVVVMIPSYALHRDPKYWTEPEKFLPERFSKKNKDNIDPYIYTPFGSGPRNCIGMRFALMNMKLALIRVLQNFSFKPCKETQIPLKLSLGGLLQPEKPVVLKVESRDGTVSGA

With `COc1cc([C@H]2OC[C@H]3[C@@H]2CO[C@@H]3c2ccc3c(c2)OCO3)cc(OC)c1OC` [Aschantin] the IC50 ([1]; 30 min pre-incubation with microsomes and NADPH, read-out: IC50 With Pre-incubation) was 87.9 µM, the IC50 ([1]; pooled human liver microsomes, no pre-incubation, read-out: IC50 No Pre-incubation) was greater than 100 µM and the “inhibition of CYP2B6-mediated bupropion hydroxylation” value ([1]; aschantin at 100 µM, human liver microsomes) was “negligibly inhibited”. For the same compound, the IC50 ([2]; IC50 No Pre-incubation, pooled human liver microsomes, no pre-incubation) was 57.5 µM, the IC50 ([2]; IC50 With Pre-incubation, 30 min pre-incubation with microsomes and NADPH) was 14.4 µM and the IC50 shift at 0.5 h ([2]; human, pooled human liver microsomes, pH 7.4, probe midazolam (2.5 µM), 1′-hydroxylation) was greater than 2.5. For the same compound, the IC50 [3] was 71 µM, the IC50 ([4]; UGT1A4-catalyzed trifluoperazine N-glucuronidation, 0.5 µM trifluoperazine, pooled human liver microsomes) was greater than 200 µM and the “inhibition of UGT1A4-catalyzed trifluoperazine N-glucuronidation” value ([4]; aschantin at 200 µM, human liver microsomes) was “not inhibited”.
